# Laboratory results as given in ChEMBL document CHEMBL1949581, “Anion inhibition studies of an α-carbonic anhydrase from the living fossil Astrosclera willeyana” (Bioorg Med Chem Lett, 2012).
# Target: T1, Astrosclerin-3 (Astrosclera willeyana, UniProt A6YCJ1)
# T1 sequence (A6YCJ1 whole entry): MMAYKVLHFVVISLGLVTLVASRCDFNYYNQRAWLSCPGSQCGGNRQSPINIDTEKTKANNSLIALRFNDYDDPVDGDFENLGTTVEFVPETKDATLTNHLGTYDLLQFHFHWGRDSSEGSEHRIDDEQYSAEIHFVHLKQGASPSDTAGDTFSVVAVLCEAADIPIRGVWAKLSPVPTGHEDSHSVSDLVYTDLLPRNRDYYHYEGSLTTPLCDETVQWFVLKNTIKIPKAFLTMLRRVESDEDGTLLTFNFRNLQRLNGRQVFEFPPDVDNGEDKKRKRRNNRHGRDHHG
# Test: biochemical
# Type: cell-based
# Description: Inhibition of Astrosclera willeyana recombinant GST-tagged astrosclerin 3 expressed in Escherichia coli BL21-DE3-RIPL cells preincubated for 15 mins measured for 10 to 100 secs by stopped flow CO2 hydration assay
row,Structure (SMILES),Ki
1,[O-][Cl+3]([O-])([O-])O [SODIUM PERCHLORATE],5110 µM
2,NS(N)(=O)=O [SULFAMIDE],8.9 µM
3,O=S(=O)(O)OOS(=O)(=O)O [SODIUM PERSULFATE],70600 µM
4,O=S(=O)(O)NS(=O)(=O)O [SODIUM IMINODISULFONATE],660 µM
5,CCN(CC)C(=S)S [DITIOCARB SODIUM],450 µM
6,S [SODIUM HYDROSULFIDE],490 µM
7,[N-]=[N+]=[N-] [SODIUM AZIDE],27800 µM
8,O=C([O-])O.[Na+] [SODIUM BICARBONATE],22800 µM
9,[F-].[Na+] [SODIUM FLUORIDE],940 µM
10,O=[Se](=O)(O)O [SODIUM SELENATE],880 µM
11,OB(O)c1ccccc1 [PHENYLBORONIC ACID],9.6 µM
12,O=S([O-])O.[Na+] [SODIUM BISULFITE],320 µM
13,NS(=O)(=O)O [SODIUM SULFAMATE],13 µM
14,N#C[SeH] [SODIUM SELENOCYANATE],770 µM
15,N#CO [SODIUM CYANATE],230 µM
16,S=C(S)S [SODIUM CARBONOTRITHIOATE],710 µM
17,[Cl-].[Na+] [SODIUM CHLORIDE],460 µM
18,F[B-](F)(F)F.[Na+] [SODIUM TETRAFLUOROBORATE],> 200000 µM
19,O=NO [SODIUM NITRITE],63800 µM
20,O=BOB(O)OB(O)OB=O [SODIUM TETRABORATE],21900 µM
21,O=P(O)(O)OP(=O)(O)O [SODIUM PYROPHOSPHATE],57700 µM
22,O=C([O-])[O-].[Na+].[Na+] [SODIUM CARBONATE],13500 µM
23,[I-].[Na+] [SODIUM IODIDE],10400 µM
24,O=S(=O)([O-])[O-].[Na+].[Na+] [SODIUM SULFATE ANHYDROUS],76300 µM
25,[Br-].[Na+] [SODIUM BROMIDE],30600 µM
26,O=S(=O)(O)OS(=O)(=O)O [SODIUM PYROSULFATE],88100 µM
27,O=[N+]([O-])[O-].[Na+] [SODIUM NITRATE],76400 µM
28,O=[Te](=O)(O)O [SODIUM TELLURATE],750 µM
